According to patent publication US20240041042A1, “1-(PYRIDYL)-5-AZINYLPYRAZOLE DERIVATIVES, AND THEIR USE FOR CONTROL OF UNDESIRED PLANT GROWTH” (Bayer Aktiengesellschaft, priority 2020, published 2024):
Like-named read-outs stand apart in the source and are kept apart here.

Columns and labels:
Type in all cases: in vivo
Lolium rigidum (LOLRI) [1] = assay: Pre-emergence herbicidal action against LOLRI
In short: (§1)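 Greenhouse pot trial: seeds sown, soil-covered, sprayed before emergence with compound in water (0.5% additive; 600 l/ha; ≤320 g/ha). Scoring visual, ~3 weeks, 0–100% scale vs untreated.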

[2] = system: Amaranthus retroflexus (AMARE); assay: Pre-emergence herbicidal action against AMARE; conditions: visual scoring after about 3 weeks vs untreated controls
In short: as §1

Viola tricolor (VIOTR) [3] = assay: Pre-emergence herbicidal action against VIOTR
In short: as §1

[4] = system: Abutilon theophrasti (ABUTH); assay: Pre-emergence herbicidal action against ABUTH; conditions: 100% = plants have died
In short: as §1

Avena fatua (AVEFA) = assay: Pre-emergence herbicidal action against AVEFA; conditions: 320 g/ha, visual scoring after about 3 weeks vs untreated controls
In short: as §1

Setaria viridis (SETVI) [5] = assay: Pre-emergence herbicidal action against SETVI
In short: as §1

Viola tricolor (VIOTR) [6] = assay: Post-emergence herbicidal action against VIOTR
In short: (§2)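 Post-emergence greenhouse spray, one-leaf stage, 600 l/ha water plus 0.5% additive; WP or EC formulations; application rates 320 g/ha or lower. Visual % damage vs untreated controls at ~3 weeks.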

Lolium rigidum (LOLRI) [7] = assay: Post-emergence herbicidal action against LOLRI; conditions: dosage 320 g/ha
In short: as §2

[8] = system: Echinochloa crus-galli (ECHCG); assay: Post-emergence herbicidal action against ECHCG
In short: as §2

Setaria viridis (SETVI) [9] = assay: Post-emergence herbicidal action against SETVI
In short: as §2

[10] = system: Matricaria inodora (MATIN); assay: Post-emergence herbicidal action against MATIN; conditions: dosage 320 g/ha
In short: as §2

[11] = system: Matricaria inodora (MATIN); assay: Pre-emergence herbicidal action against MATIN
In short: as §1

[12] = system: Polygonum convolvulus (POLCO); assay: Pre-emergence herbicidal action against POLCO
In short: as §1

[13] = system: Verconica persica (VERPE); assay: Pre-emergence herbicidal action against VERPE; conditions: dosage 320 g/ha
In short: as §1

[14] = system: Pharbitis purpurea (PHBPU); assay: Pre-emergence herbicidal action against PHBPU
In short: as §1

[15] = system: Abutilon theophrasti (ABUTH); assay: Post-emergence herbicidal action against ABUTH; conditions: visual rating about 3 weeks after treatment vs untreated controls (100% = plants have died, 0% = like control plants)
In short: as §2

[16] = system: Echinochloa crus-galli (ECHCG); assay: Pre-emergence herbicidal action against ECHCG
In short: as §1

[17] = system: Digitaria sanguinalis (DIGSA); assay: Post-emergence herbicidal action against DIGSA; conditions: visual rating about 3 weeks after treatment
In short: as §2

[18] = system: Digitaria sanguinalis (DIGSA); assay: Pre-emergence herbicidal action against DIGSA
In short: as §1

Oryza sativa (ORYSA) = conditions: crop plant compatibility
In short: (§3)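 Greenhouse crops in sandy loam sprayed post-emergence at the one-leaf stage, 2–3 weeks after sowing, with WP or EC formulations in water plus 0.5% additive at 600 l/ha. Damage rated visually about 3 weeks later versus untreated controls (0% = like control, 100% = dead); suffixes a–c denote different doses.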

[19] = system: Pharbitis purpurea (PHBPU); assay: Post-emergence herbicidal action against PHBPU
In short: as §2

[20] = system: Alopecurus myosuroides (ALOMY); assay: Pre-emergence herbicidal action against ALOMY; conditions: scored visually after about 3 weeks, 100% = plants have died
In short: as §1

[21] = system: Amaranthus retroflexus (AMARE); assay: Post-emergence herbicidal action against AMARE; conditions: 80 g/ha, visual rating about 3 weeks after treatment vs untreated controls (100% = plants have died, 0% = like control plants)
In short: as §2

[22] = system: Polygonum convolvulus (POLCO); assay: Post-emergence herbicidal action against POLCO; conditions: dosage 80 g/ha
In short: as §2

Zea mays (ZEAMX) [23] = conditions: pre-emergence, 80 g/ha, crop plant compatibility, in comparison to untreated controls
In short: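 Scoring: visual, % of untreated control, about 3 weeks after a pre-emergence application to the soil surface. Application used WP or EC formulations diluted in water with 0.5% additive at 600 l/ha; dosage levels are marked by suffixes a, b and c.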

Zea mays (ZEAMX) [24] = conditions: 20 g/ha, ZEAMX, effect in comparison to untreated controls
In short: as §3

[25] = system: Alopecurus myosuroides (ALOMY); assay: Post-emergence herbicidal action against ALOMY; conditions: 80 g/ha, visual rating about 3 weeks after treatment vs untreated controls (100% = plants have died, 0% = like control plants)
In short: as §2

[26] = Dosage column 320 g/ha (title prints 3200 g/ha), scored visually after about 3 weeks
[27] = 80 g/ha, visual scoring after about 3 weeks vs untreated controls
[28] = 80 g/ha, effect in comparison to untreated controls

| Post-emergence action against ORYSA in % (Oryza sativa (ORYSA); [28]) [%] | SMILES | Pre-emergence action against LOLRI in % (Lolium rigidum (LOLRI) [1]; dosage 320 g/ha) [%] | Pre-emergence action against AMARE in % ([2]; 320 g/ha) [%] | Pre-emergence action against VIOTR in % (Viola tricolor (VIOTR) [3]; 320 g/ha, Viola tricolor) [%] | Pre-emergence action against VIOTR in % (Viola tricolor (VIOTR) [3]; dosage 80 g/ha) [%] | Pre-emergence action against ABUTH [4, 26] [%] | Pre-emergence action against AVEFA in % (Avena fatua (AVEFA)) [%] | Pre-emergence action against SETVI in % (Setaria viridis (SETVI) [5]; dosage 80 g/ha) [%] | Pre-emergence action against SETVI in % (Setaria viridis (SETVI) [5]; dosage 320 g/ha) [%] | Post-emergence action against ECHCG in % ([8]; dosage 80 g/ha) [%] | Pre-emergence action against MATIN in % ([11]; dosage 320 g/ha) [%] | Pre-emergence action against POLCO in % ([12]; dosage 80 g/ha) [%] | Pre-emergence action against POLCO in % ([12]; dosage 320 g/ha) [%] | Pre-emergence action against VERPE in % [13] [%] | Pre-emergence action against PHBPU in % ([14]; dosage 320 g/ha) [%] | Pre-emergence action against ECHCG in % ([16]; dosage 320 g/ha) [%] | Pre-emergence action against DIGSA in % [18, 27] [%] | Pre-emergence action against DIGSA in % ([18]; dosage 320 g/ha) [%] | Post-emergence action against PHBPU in % ([19]; dosage 80 g/ha) [%] | Pre-emergence action against ALOMY ([20]; 80 g/ha) [%] | further results |
| --- | --- | --- | --- | --- | --- | --- | --- | --- | --- | --- | --- | --- | --- | --- | --- | --- | --- | --- | --- | --- | --- |
| 10 | C[C@@H](Oc1nn(-c2nc(F)ccc2F)c(-c2cncc(F)c2)c1Cl)C(=O)O [Example I-159] | 100 | 100 | 100 | 100 | 80 | 90 | 90 | 100 | 80 | 90 | 90 | 90 | 100 | 90 | 90 | 90 | 100 | 80 | 80 | Pre-emergence action against LOLRI in % (Lolium rigidum (LOLRI) [1]; dosage 80 g/ha): 90%; Pre-emergence action against AMARE in % ([2]; 80 g/ha): 90%; Pre-emergence action against ABUTH ([4]; 80 g/ha, scored visually after about 3 weeks vs untreated controls, 0% = like control plants): 80%; Post-emergence action against VIOTR in % (Viola tricolor (VIOTR) [6]; 320 g/ha): 80%; Post-emergence action against LOLRI in % (Lolium rigidum (LOLRI) [7]): 80%; Post-emergence action against ECHCG in % ([8]; dosage 320 g/ha): 90%; Post-emergence action against SETVI in % (Setaria viridis (SETVI) [9]; dosage 320 g/ha): 80%; Post-emergence action against MATIN in % [10]: 80%; Pre-emergence action against MATIN in % ([11]; dosage 80 g/ha): 90%; Pre-emergence action against PHBPU in % ([14]; dosage 80 g/ha): 80%; Post-emergence action against ABUTH in % ([15]; 320 g/ha): 80%; Pre-emergence action against ECHCG in % ([16]; dosage 80 g/ha): 90%; Post-emergence action against DIGSA in % ([17]; 320 g/ha): 80%; Post-emergence action against PHBPU in % ([19]; dosage 320 g/ha): 80%; Pre-emergence action against ALOMY ([20]; 320 g/ha): 90% |
| 0 | CN(C)S(=O)(=O)NC(=O)COc1nn(-c2ncccc2F)c(-c2ccc(F)nc2)c1Br [Example I-36] | 100 | 100 | 100 | 100 | 80 | 90 | 100 | 100 | 90 | 100 | 80 | 90 | 100 | 100 | 100 | 100 | 100 | 80 | 100 | Post-emergence action against AMARE in % [21]: 80%; Post-emergence action against VIOTR in % (Viola tricolor (VIOTR) [6]; 80 g/ha): 90%; Post-emergence action against SETVI in % (Setaria viridis (SETVI) [9]; dosage 80 g/ha): 80%; Post-emergence action against POLCO in % [22]: 80%; Post-emergence action against ABUTH in % ([15]; 80 g/ha): 80%; Post-emergence action against DIGSA in % ([17]; 80 g/ha): 90%; Pre-emergence action against ZEAMX in % (Zea mays (ZEAMX) [23]): 0%; Post-emergence action against ORYSA in % (Oryza sativa (ORYSA); 20 g/ha, effect vs untreated controls): 0%; Post-emergence action against ZEAMX in % (crop plant compatibility) (Zea mays (ZEAMX) [24]): 20%; Pre-emergence action against ALOMY ([20]; 320 g/ha): 100%; Post-emergence action against ALOMY in % [25]: 90% |
